According to ChEMBL document CHEMBL1130956 (Bioorg Med Chem Lett, 1998):

Key:
[1] = molecular target: T1, Cysteinyl leukotriene receptor 1 (Cavia porcellus, UniProt Q2NNR5); assay: Binding affinity against leukotriene D4 receptor in [3H]LTD4 binding assay
T1 sequence (Q2NNR5 whole entry): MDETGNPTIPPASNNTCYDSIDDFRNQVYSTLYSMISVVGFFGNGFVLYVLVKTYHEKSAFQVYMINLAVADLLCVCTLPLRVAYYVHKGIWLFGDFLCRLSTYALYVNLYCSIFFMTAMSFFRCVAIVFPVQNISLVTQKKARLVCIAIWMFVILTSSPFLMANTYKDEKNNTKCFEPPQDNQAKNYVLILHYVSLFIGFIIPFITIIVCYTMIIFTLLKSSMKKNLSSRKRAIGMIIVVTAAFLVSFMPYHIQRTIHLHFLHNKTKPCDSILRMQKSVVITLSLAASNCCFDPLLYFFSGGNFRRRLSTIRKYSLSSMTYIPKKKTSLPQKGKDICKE

U-937 = assay: Ability to mobilize Ca+2 in LTD4 dependent Ca+2 mobilization assay in differentiated human monocytic U-937 cells; assay type: functional, cell-based
Cavia porcellus [2] = assay: In vivo activity was determined after oral administration for 2 hr in a guinea pig efficacy model for allergic airway obstruction; assay type: functional
Cavia porcellus [3] = assay: In vivo activity was determined after 1 mg/kg oral administration for 1 hr in a guinea pig efficacy model for allergic airway obstruction; assay type: functional
Cavia porcellus [4] = assay: In vivo activity was determined after oral administration for 1 hr in a guinea pig efficacy model for allergic airway obstruction; assay type: functional
Cavia porcellus [5] = assay: In vivo activity was determined after 1 mg/kg oral administration for 2 hrs in a guinea pig efficacy model for allergic airway obstruction; assay type: functional
Cavia porcellus [6] = assay: In vivo activity was determined after oral administration for 2 hrs in a guinea pig efficacy model for allergic airway obstruction; assay type: functional

Row | IC50 [1] | IC50 (U-937) | Structure (SMILES) | ED50 (Cavia porcellus [2]) | inhibition in vivo at 1 mg/kg (Cavia porcellus [3]) | Inhibition (Cavia porcellus [4]) | ED50 (Cavia porcellus [4]) | inhibition in vivo at 1 mg/kg (Cavia porcellus [5]) | ED50 (Cavia porcellus [6])
1 | 2 nM | 0.4 nM | COc1cc(C(=O)NS(=O)(=O)c2ccccc2C)ccc1Cc1cn(C(=O)N(c2ccccc2)c2ccccc2)c2ccc(NC(=O)OC3CCCC3)cc12 | 1.1 mg/kg | – | – | – | – | –
2 | 1 nM | 2 nM | COc1cc(C(=O)NS(=O)(=O)c2ccccc2C)ccc1Cc1c[nH]c2ccc(NC(=O)OC3CCCC3)cc12 [N-DEALKYLATED DERIVATIVE] | – | 40% | – | – | – | –
3 | 0.5 nM | 0.1 nM | COc1cc(C(=O)NS(=O)(=O)c2ccccc2C)ccc1Cc1cn(C(=O)NCCN(C)C)c2ccc(NC(=O)OC3CCCC3)cc12 | – | – | 34% | – | – | –
4 | 1 nM | 0.6 nM | COc1cc(C(=O)NS(=O)(=O)c2ccccc2C)ccc1Cc1cn(C=O)c2ccc(NC(=O)OC3CCCC3)cc12 | – | – | – | 0.84 mg/kg | – | –
5 | 0.5 nM | 0.1 nM | COc1cc(C(=O)NS(=O)(=O)c2ccccc2C)ccc1Cc1cn(C(=O)NCCCc2ccccc2)c2ccc(NC(=O)OC3CCCC3)cc12 | – | – | – | 1.6 mg/kg | – | –
6 | 0.5 nM | 0.3 nM | COc1cc(C(=O)NS(=O)(=O)c2ccccc2C)ccc1Cc1cn(C(N)=O)c2ccc(NC(=O)OC3CCCC3)cc12 | – | – | – | 1.6 mg/kg | – | –
7 | 0.4 nM | 0.2 nM | COc1cc(C(=O)NS(=O)(=O)c2ccccc2C)ccc1Cc1cn(C(=O)N(C)c2ccccc2)c2ccc(NC(=O)OC3CCCC3)cc12 | 1.1 mg/kg | – | – | – | – | –
8 | 1 nM | 0.4 nM | COc1cc(C(=O)NS(=O)(=O)c2ccccc2C)ccc1Cc1cn(C(F)F)c2ccc(NC(=O)OC3CCCC3)cc12 | – | – | – | – | 58% | –
9 | – | 1 nM | COc1cc(C(=O)NS(=O)(=O)c2ccccc2C)ccc1Cc1cn(C)c2ccc(NC(=O)OC3CCCC3)cc12 [ZAFIRLUKAST] | – | – | – | – | – | 0.9 mg/kg
10 | 0.5 nM | 0.8 nM | CCN(CC)C(=O)n1cc(Cc2ccc(C(=O)NS(=O)(=O)c3ccccc3C)cc2OC)c2cc(NC(=O)OC3CCCC3)ccc21 | – | – | – | 1.2 mg/kg | – | –
11 | 0.4 nM | 2 nM | COc1cc(C(=O)NS(=O)(=O)c2ccccc2C)ccc1Cc1cn(C(=O)N2CCOCC2)c2ccc(NC(=O)OC3CCCC3)cc12 | – | – | 8% | – | – | –
12 | 0.4 nM | 1 nM | COc1cc(C(=O)NS(=O)(=O)c2ccccc2C)ccc1Cc1cn(C(=O)N(C)C)c2ccc(NC(=O)OC3CCCC3)cc12 | – | 39% | – | – | – | –
